In US20230148450A9, “BICYCLIC HETEROARYL COMPOUNDS AND USES THEREOF” (Revolution Medicines, Inc., priority 2019, published 2023) one finds Kd and IC50 data, which are given here for 18 compounds.

For experiment [1], the target named is T1, SOS1 catalytic domain (residues 564-1049) (Homo sapiens, UniProt Q07889).
T1 construct: SOS1 catalytic domain (residues 564-1049) immobilized on a sensor chip
T1 sequence (Q07889 564-1049): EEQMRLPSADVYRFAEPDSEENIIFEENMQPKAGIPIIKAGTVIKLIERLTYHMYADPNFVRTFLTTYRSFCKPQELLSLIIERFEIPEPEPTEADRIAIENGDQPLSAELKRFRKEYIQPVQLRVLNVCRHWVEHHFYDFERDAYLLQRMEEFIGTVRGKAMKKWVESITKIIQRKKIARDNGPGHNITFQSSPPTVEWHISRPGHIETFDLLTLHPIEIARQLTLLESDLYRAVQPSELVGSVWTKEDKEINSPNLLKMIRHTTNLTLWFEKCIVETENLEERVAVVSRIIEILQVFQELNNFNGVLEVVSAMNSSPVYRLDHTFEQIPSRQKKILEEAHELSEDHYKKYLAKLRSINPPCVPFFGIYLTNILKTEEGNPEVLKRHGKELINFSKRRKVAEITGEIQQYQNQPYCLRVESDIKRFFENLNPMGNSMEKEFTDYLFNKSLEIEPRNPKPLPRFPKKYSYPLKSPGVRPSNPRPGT
The experiment is described as follows: Binding affinity to SOS1 using Surface Plasmon Resonance (SPR). The conditions noted are these: avi-tagged SOS1 catalytic domain immobilized on sensor chip; read-out: SOS1 SPR Equilibrium Kd. Put shortly: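 Avi-tagged human SOS1 catalytic domain (564-1049) captured on streptavidin chip (~6000 RU); compounds flowed at 50 μL/min, 5 μM to 4.9 nM in ten 2-fold steps, in HEPES/NaCl/P20 buffer with 2% DMSO, double-referenced. Kd from end-of-association response plotted versus concentration.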

For experiment [2], the target named is T2, SOS1 nucleotide exchange of KRAS (catalytic domain of SOS1, residues 564-1049; wild-type KRAS) (Homo sapiens, UniProt Q07889).
T2 construct: tagless catalytic domain of SOS1 (residues 564-1049)
T2 sequence (Q07889 564-1049): T1 sequence (Q07889 564-1049)
Nature of the experiment: Mode of Action Assay: Inhibition of SOS1 Nucleotide Exchange Activity (TR-FRET). Type of experiment: biochemical. The conditions noted are these: TR-FRET signal. Put shortly: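 SOS1 catalytic domain (564-1049, 100 nM as diluted) preincubated 20 min with compounds (100 μM–1.7 nM, 11-point 3-fold) in HEPES pH 7.5 buffer with MgCl2. Then mixed with avi-KRAS(1-169), Streptavidin-Tb and EDA-GTP-DY-647P1 for 30 min at room temperature. TR-FRET normalized to DMSO and positive control, triplicates; IC50 by four-parameter logistic fit.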
A general note: TR-FRET usually uses a lanthanide donor and a delayed reading to cut background.

The test system of experiment [3] is cellular pERK in PC-9 cells (EGFR Ex19Del). Nature of the experiment: Potency Assay: pERK. Type of experiment: cell-based. The conditions noted are these: Homo sapiens, read-out: SOS1 pERK IC50. The source says:
The purpose of this assay is to measure the ability of test compounds to inhibit SOS1 function in cells. SOS1 activates RAS proteins by catalyzing the conversion of […] to […] in response to receptor tyrosine kinase activation. Activation of RAS induces a sequence of cellular signaling events that results in increased phosphorylation of ERK at […] (pERK). The procedure described below measures the level of cellular pERK in response to test compounds in PC-9 cells (EGFR Ex[…]). PC-9 cells were grown and maintained using media and procedures recommended by the ATCC. On the day prior to compound addition, cells were plated in 384-well cell culture plates (40 μL/well) and grown overnight in a 37° C., 5% CO2 incubator. Test compounds were prepared in 10, 3-fold dilutions in DMSO, with a top concentration of 10 mM. On the day of the assay, 40 nL of test compound was added to each well of cell culture plate using an Echo550 liquid handler (LabCyte). Concentrations of test compound were tested in duplicate with highest test concentration being 10 μM. After compound addition, cells were incubated for 1 hour at 37° C., 5% CO2. Following incubation, culture medium was removed and cells were washed once with phosphate buffered saline. Cellular pERK level was determined using the AlphaLISA SureFire Ultra p-ERK1/2 Assay Kit (PerkinElmer). Cells were lysed in 25 μL lysis buffer, with shaking at 600 RPM at room temperature for 15 minutes. Lysate (10 μL) was transferred to a 384-well Opti-plate (PerkinElmer) and 5 μL acceptor mix was added. The plate was centrifuged at 1000 RPM for 1 minute, and incubated in the dark for 2 hours. Following this incubation, 5 μL of donor mix was added, the plate was sealed and centrifuged at 1000 RPM for 1 minute, and the mixture was incubated for 2 hours at room temperature. Signal was read on an Envision plate reader (PerkinElmer) using standard AlphaLISA settings. Analysis of raw data was carried out in Excel (Microsoft) and Prism (GraphPad). Signal was plotted vs. the decadal logarithm of compound concentration, and IC50 was determined by fitting a 4-parameter sigmoidal concentration response model.

Setting [4] is: PC-9 cells (EGFR Ex19Del), 1 hour incubation, AlphaLISA p-ERK1/2.

As a reminder, the Kd is the concentration at which binding is half-saturated. A word on the IC50: it is the concentration that inhibits the measured activity by half.

Structures can show the parent of a compound that is named as a salt. Where two headings read alike, the source gives them in different places.

For `Cc1nc(N[C@H](C)c2cc(N)cc(C(F)(F)F)c2)c2cc(C(=O)N3CCN(C)CC3)cn2n1` [Example 36, (R)-(4-((1-(3-amino-5-(trifluoromethyl)phenyl)ethyl)amino)-2-methylpyrrolo[2,1-f][1,2,4]triazin-6-yl)(4-methylpiperazin-1-yl)methanone], in experiment [1], the Kd was at most 400 nM. For the same compound, the IC50 in experiment [2] and in experiment [3] (setting [4]) was below 1000 nM in each case.
As to `C[C@@H](Nc1nccc2nc(C(=O)N3CCNCC3)cn12)c1cccc(C(F)F)c1F` [Example 85, [5-[[(1R)-1-[3-(difluoromethyl)-2-fluoro-phenyl]ethyl]amino]imidazo[1,2-c]pyrimidin-2-yl]-piperazin-1-yl-methanone hydrochloride], the Kd in experiment [1] is at most 400 nM. In addition, the IC50 was below 1000 nM in experiment [2] and below 1000 nM in experiment [3] (PC-9, 1 h).
For `C[C@@H](Nc1ncnn2cc(C(=O)N3CC4(CN(C)C4)C3)cc12)c1cccc(C(F)F)c1F` [Example 70], the Kd in experiment [1] was at most 400 nM. Moreover, the IC50 in experiment [2] and in experiment [3] (setting [4]) was below 1000 nM each time.
In the case of `C[C@@H](Nc1nc(Cl)nn2cc(C(=O)N3CC4(CN(C)C4)C3)cc12)c1cccc(C(F)(F)F)c1` [Example 97], the Kd in experiment [1] was at most 400 nM. For the same compound, the IC50 in experiment [2] and in experiment [3] (setting [4]) was below 1000 nM in each case.
On to `Cc1cn2nc(C(=O)N3CCN(C4COC4)CC3)cc2c(N[C@H](C)c2cc(N)cc(C(F)(F)F)c2)n1` [Example 76], for which the Kd in experiment [1] is at most 400 nM. Besides, the IC50 in experiment [2] and in experiment [3] (setting [4]) was below 1000 nM in each case.
On to `C[C@@H](Nc1nc(Cl)nc2c1cc(C1=CCNCC1)n2C)c1cc(N)cc(C(F)(F)F)c1` [Example 39, N-[(1R)-1-[3-amino-5-(trifluoromethyl)phenyl]ethyl]-2-chloro-7-methyl-6-(1,2,3,6-tetrahydropyridin-4-yl)pyrrolo[2,3-d]pyrimidin-4-amine], for which, in experiment [1], the Kd is at most 400 nM. In addition, the 50% inhibitory concentration (IC50) in experiment [2] and in experiment [3] (setting [4]) was above 1000 nM in each case.
In the case of `Cc1nc(N[C@H](C)c2cc(N)cc(C(F)(F)F)c2)c2cc(C(=O)N3CCOCC3)cn2n1` [Example 41, [4-[[(1R)-1-[3-amino-5-(trifluoromethyl)phenyl]ethyl]amino]-2-methyl-pyrrolo[2,1-f][1,2,4]triazin-6-yl]morpholino-methanone], in experiment [1], the Kd was at most 400 nM. For the same compound, the IC50 in experiment [2] and in experiment [3] (setting [4]) was below 1000 nM each time.
Take `C[C@@H](Nc1nc(Cl)cn2cc(C(=O)N3CCOCC3)nc12)c1cc(N)cc(C(F)(F)F)c1` [Example 29, [8-[[(1R)-1-[3-amino-5-(trifluoromethyl)phenyl]ethyl]amino]-6-chloro-imidazo[1,2-a]pyrazin-2-yl]-morpholino-methanone]: in experiment [1], the Kd is above 400 nM. Besides, the IC50 in experiment [2] and in experiment [3] (setting [4]) was above 1000 nM each time.
Regarding `CNCc1ccccc1-c1ccc(C(C)Nc2nc(C)nn3cc(C4=CCNCC4)cc23)s1` (stereo not drawn) [Example 40, 2-methyl-N-[1-[5-[2-(methylaminomethyl)phenyl]-2-thienyl]ethyl]-6-(1,2,3,6-tetrahydropyridin-4-yl)pyrrolo[2,1-f][1,2,4]triazin-4-amine], the Kd in experiment [1] was at most 400 nM. In addition, the IC50 in experiment [2] and in experiment [3] (setting [4]) was above 1000 nM each time.
On to `Cc1cn2nc(C(=O)N3CC4CC3CN4C)cc2c(N[C@H](C)c2cc(N)cc(C(F)(F)F)c2)n1` (stereo partly drawn) [Example 81], for which the Kd in experiment [1] is at most 400 nM. Further, the IC50 in experiment [2] and in experiment [3] (setting [4]) was below 1000 nM each time.
As for `C[C@@H](Nc1nc(Cl)nc2[nH]c(C(=O)N3CCOCC3)nc12)c1cccc(C(F)(F)CO)c1` [Example 73, (R)-(2-chloro-6-((1-(3-(1,1-difluoro-2-hydroxyethyl)phenyl)ethyl)amino)-9H-purin-8-yl)(morpholino)methanone], the Kd in experiment [1] is at most 400 nM. Also, the IC50 in experiment [2] is below 1000 nM; in experiment [3] (setting [4]), above 1000 nM.
Taken in the same sequence, the figures for `C[C@@H](Nc1nc(Cl)cn2nc(C(=O)N3CCOCC3)cc12)c1cc(N)cc(C(F)(F)F)c1` [Example 74] were above 400 nM, above 1000 nM and below 1000 nM.
`CC(=O)N1CC2(C1)CN(C(=O)c1cn3c(N[C@H](C)c4cccc(C(F)F)c4F)nccc3n1)C2` [Example 89]: the equilibrium dissociation constant (Kd) in experiment [1] was at most 400 nM. Further, the IC50 in experiment [2] and in experiment [3] (setting [4]) was below 1000 nM each time.
For the compound `Cc1nc(N[C@H](C)c2cc(N)cc(C(F)(F)F)c2)c2cc(C(=O)N3CCN(C)CC3)n(C)c2n1` [Example 37, [4-[[(1R)-1-[3-amino-5-(trifluoromethyl)phenyl]ethyl]amino]-2,7-dimethyl-pyrrolo[2,3-d]pyrimidin-6-yl]-(4-methylpiperazin-1-yl)methanone], in experiment [1], the Kd was above 400 nM. The IC50 in experiment [2] and in experiment [3] (setting [4]) was above 1000 nM throughout.
Take `C[C@@H](Nc1ncnn2cc(N3CCOCC3)cc12)c1cc(N)cc(C(F)(F)F)c1` [Example 47, N-[(1R)-1-[3-amino-5-(trifluoromethyl)phenyl]ethyl]-6-morpholino-pyrrolo[2,1-f][1,2,4]triazin-4-amine]: in experiment [1], the Kd was above 400 nM. Besides, the IC50 in experiment [2] and in experiment [3] (setting [4]) was above 1000 nM each time.
Take `C[C@@H](Nc1nc(Cl)nc2c1nc(C(=O)N1CCOCC1)n2C)c1cccc(C(F)(F)CO)c1` [Example 103, (R)-(2-chloro-6-((1-(3-(1,1-difluoro-2-hydroxyethyl)phenyl)ethyl)amino)-9-methyl-9H-purin-8-yl)(morpholino)methanone]: the Kd in experiment [1] was above 400 nM. Moreover, the IC50 in experiment [2] and in experiment [3] (setting [4]) was below 1000 nM each time.
`C[C@@H](Nc1nc(Cl)nn2cc(C(=O)N3CC4(COC4)C3)cc12)c1cccc(C(F)F)c1F` [Example 100]: the Kd in experiment [1] was at most 400 nM. For the same compound, the IC50 in experiment [2] and in experiment [3] (setting [4]) was below 1000 nM in each case.
As to `C[C@@H](Nc1ncnc2sc(C(=O)N3CCOCC3)cc12)c1cc(N)cc(C(F)(F)F)c1` [Example 65, N-[(1R)-1-[3-amino-5-(trifluoromethyl)phenyl]ethyl]-6-(morpholine-4-carbonyl)thieno[2,3-d]pyrimidin-4-amine], the Kd in experiment [1] is at most 400 nM. The IC50 in experiment [2] and in experiment [3] (setting [4]) was below 1000 nM in each case.
